From paper PMC9306349, “A Process for the Design and Development of Novel Bone Morphogenetic Protein-7 (BMP-7) Mimetics With an Example: THR-184” (Frontiers in Pharmacology, 2022)
Read-outs that look alike come from different tables or passages of the source. Marks after values point to notes of the source that are not given here. Bridge positions count the residues as written; N and C are the ends. Peptide text beside a SMILES is read from it.

Tests used:
[1] = Stability of THR-184 in human plasma with and without ACE inhibitor; assay type: in vitro ADME; details: compound administered with an ACE inhibitor, read-out: serum half-life
From the text: Protease degradation of drug candidates can shorten their in-plasma half-life to the point that therapeutic exposure is severely compromised resulting in loss of efficacy.

cancer growth = experiment: Preclinical overview: cancer growth
From the text: (§1) TABLE 2 THR-184 overview.

bleeding time = test system: bleeding time
From the text: as §1

hemodynamics = test system: hemodynamics
From the text: as §1

wound healing = test system: wound healing
From the text: as §1

Off-target survey = details: 114 targets surveyed
From the text: as §1

CYP450 1A2 = target: T1, CYP450 1A2 (Homo sapiens, UniProt P05177); assay type: in vitro ADME
T1 sequence (P05177 1-516): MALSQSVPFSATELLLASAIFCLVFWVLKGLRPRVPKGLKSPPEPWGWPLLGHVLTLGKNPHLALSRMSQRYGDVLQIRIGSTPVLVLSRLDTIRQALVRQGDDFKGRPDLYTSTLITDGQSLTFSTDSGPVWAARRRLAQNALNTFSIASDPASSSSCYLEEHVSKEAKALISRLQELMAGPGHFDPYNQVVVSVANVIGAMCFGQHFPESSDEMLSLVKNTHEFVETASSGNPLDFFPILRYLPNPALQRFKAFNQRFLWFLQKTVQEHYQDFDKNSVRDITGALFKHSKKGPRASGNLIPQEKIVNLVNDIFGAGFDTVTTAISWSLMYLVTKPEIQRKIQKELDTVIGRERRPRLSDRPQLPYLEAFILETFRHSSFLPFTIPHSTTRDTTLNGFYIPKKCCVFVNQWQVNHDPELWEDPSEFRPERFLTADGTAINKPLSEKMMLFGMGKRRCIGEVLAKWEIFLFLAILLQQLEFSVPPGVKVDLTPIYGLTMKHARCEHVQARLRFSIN
From the text: as §1

CYP450 2C19 = CYP450 2C19 (Homo sapiens, UniProt P33261); experiment: CYP450 isoform effect; assay type: in vitro ADME
Sequence of CYP450 2C19 (P33261 whole entry, canonical isoform): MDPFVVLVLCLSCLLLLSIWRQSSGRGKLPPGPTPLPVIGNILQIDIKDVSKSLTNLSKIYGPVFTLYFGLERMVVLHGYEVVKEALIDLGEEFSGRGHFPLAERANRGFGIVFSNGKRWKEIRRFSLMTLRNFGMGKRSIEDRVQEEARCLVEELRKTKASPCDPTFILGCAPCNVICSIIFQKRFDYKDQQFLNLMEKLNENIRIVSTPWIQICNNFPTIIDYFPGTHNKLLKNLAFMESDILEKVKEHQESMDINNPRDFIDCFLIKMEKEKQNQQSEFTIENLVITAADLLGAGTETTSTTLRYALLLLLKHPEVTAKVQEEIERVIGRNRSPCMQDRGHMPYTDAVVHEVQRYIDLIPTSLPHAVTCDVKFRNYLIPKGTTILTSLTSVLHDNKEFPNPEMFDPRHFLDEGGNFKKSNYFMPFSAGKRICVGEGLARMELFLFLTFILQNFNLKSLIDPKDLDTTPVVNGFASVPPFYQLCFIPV
From the text: as §1

CYP450 2C9 = CYP450 2C9 (Homo sapiens, UniProt P11712); experiment: CYP450 isoform effect; assay type: in vitro ADME
Sequence of CYP450 2C9 (P11712 whole entry, canonical isoform): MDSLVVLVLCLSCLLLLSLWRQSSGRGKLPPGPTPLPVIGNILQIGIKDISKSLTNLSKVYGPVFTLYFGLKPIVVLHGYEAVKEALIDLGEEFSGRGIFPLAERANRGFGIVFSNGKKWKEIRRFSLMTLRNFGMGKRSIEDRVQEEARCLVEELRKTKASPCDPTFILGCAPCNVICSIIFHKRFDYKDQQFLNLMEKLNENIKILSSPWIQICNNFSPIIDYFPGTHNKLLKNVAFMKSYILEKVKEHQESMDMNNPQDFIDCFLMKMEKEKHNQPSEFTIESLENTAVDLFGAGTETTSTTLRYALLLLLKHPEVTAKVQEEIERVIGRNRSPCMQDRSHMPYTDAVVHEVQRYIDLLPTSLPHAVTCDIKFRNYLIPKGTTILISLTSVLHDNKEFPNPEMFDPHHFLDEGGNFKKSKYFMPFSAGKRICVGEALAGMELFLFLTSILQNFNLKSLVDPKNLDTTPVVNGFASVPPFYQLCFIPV
From the text: as §1

CYP450 2D6 = CYP450 2D6 (Homo sapiens, UniProt P10635); experiment: CYP450 isoform effect; assay type: in vitro ADME
Sequence of CYP450 2D6 (P10635 whole entry, canonical isoform): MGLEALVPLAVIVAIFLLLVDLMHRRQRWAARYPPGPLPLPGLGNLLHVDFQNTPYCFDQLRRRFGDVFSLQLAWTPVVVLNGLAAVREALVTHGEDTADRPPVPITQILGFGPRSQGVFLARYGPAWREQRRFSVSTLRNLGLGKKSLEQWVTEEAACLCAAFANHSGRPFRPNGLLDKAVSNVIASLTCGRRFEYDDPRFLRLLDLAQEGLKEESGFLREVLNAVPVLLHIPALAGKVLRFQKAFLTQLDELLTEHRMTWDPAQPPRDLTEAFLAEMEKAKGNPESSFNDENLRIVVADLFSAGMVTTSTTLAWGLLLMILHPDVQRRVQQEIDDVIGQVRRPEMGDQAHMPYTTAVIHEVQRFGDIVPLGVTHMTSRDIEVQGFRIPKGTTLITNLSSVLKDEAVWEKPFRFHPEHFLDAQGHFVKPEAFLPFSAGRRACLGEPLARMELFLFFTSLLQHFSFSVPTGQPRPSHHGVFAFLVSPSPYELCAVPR
From the text: as §1

CYP450 3A4 = CYP450 3A4 (Homo sapiens, UniProt P08684); experiment: CYP450 isoform effect; assay type: in vitro ADME
Sequence of CYP450 3A4 (P08684 whole entry, canonical isoform): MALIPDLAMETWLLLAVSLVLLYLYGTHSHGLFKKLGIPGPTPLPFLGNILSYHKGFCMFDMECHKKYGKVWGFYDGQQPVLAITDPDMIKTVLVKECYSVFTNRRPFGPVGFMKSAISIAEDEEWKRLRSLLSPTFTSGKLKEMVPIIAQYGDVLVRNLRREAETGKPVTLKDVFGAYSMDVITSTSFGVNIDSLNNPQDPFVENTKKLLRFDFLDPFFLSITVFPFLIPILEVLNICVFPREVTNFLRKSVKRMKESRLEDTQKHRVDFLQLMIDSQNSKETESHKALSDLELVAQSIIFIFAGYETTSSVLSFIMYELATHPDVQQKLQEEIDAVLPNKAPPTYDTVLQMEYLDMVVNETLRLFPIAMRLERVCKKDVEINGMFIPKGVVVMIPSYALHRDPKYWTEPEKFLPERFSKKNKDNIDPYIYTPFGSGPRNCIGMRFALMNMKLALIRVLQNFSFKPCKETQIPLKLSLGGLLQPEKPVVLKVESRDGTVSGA
From the text: as §1

[2] = test system: patients having major cardio-vascular surgery requiring the cardiopulmonary pump; experiment: Phase II clinical trial NCT01830920, AKI after cardio-vascular surgery with cardiopulmonary pump; assay type: in vivo, human; details: clinical trial pharmacokinetic data; large variability of C Max and AUC
From the text: The objective of the Phase II clinical trial, NCT01830920, ([Thrasos Innovation, Inc, 2013]), was to establish the dose, safety, and preliminary efficacy of THR-184 in a targeted patient population having major cardio-vascular surgery requiring the use of the cardiopulmonary pump The primary outcome of this clinical trial was the proportion of patients who develop AKI according to the KDIGO criteria ([Kidney Disease: Improving Global Outcomes (KDIGO) Acute Kidney Injury Work Group, 2012]). […] Use of urinary creatinine is not part of the KDIGO AKI criteria, but rather it is the urinary output that is part of the AKI definition. […] The clinical trial included serum samples for the analysis of KIM-1 and NGAL as exploratory endpoints, but there are as yet no published results from those samples.
SAE: number of Serious Adverse Events.

[3] = test system: adult healthy male and female volunteers; details: ref Himmelfarb et al., 2018, cited from earlier work
Experimental: In the first study, THR-P-427 (SAD), the drug (THR-184) was administered as slow intravenous infusions in a total of 40 adult healthy male and female volunteers. The study drug or placebo was administered once on the morning after a 10-h overnight fast. The solution was administered by slow injection via an indwelling catheter, at an infusion rate of 1 ml/min over 60 min. Five dose levels were studied: 0.3 mg/kg, 1 mg/kg, 3 mg/kg, 6 mg/kg and 10 mg/kg. Adverse events were recorded continuously during the study.

[4] = test system: adult healthy male and female volunteers; details: ref Himmelfarb et al., 2018, cited from earlier work; remark: listed apart in the source
Experimental: In the second study, THR-P-428 (MAD), THR-184 was administered as a slow intravenous infusion in a total of 24 adult healthy male and female volunteers, once daily over five consecutive days. THR-184 or the placebo was administered on the morning after a 10-h overnight fast. The solution was administered by slow injection via an indwelling catheter, at an infusion rate of 1 ml/min over 60 min. Three dose levels were studied: 0.3 mg/kg, 1 mg/kg, and 3 mg/kg. Adverse events were recorded continuously during the study.

[5] = cited from earlier work
[6] = test system: patients having major cardio-vascular surgery requiring the cardiopulmonary pump; details: ref Himmelfarb et al., 2018, cited from earlier work
ectopic bone formation = experiment: Rat implant assay of ectopic bone formation; assay type: in vivo; details: implanted in muscle pocket (Hydrogel or collagen carrier device), implants removed day 14, histology toluidine blue
Experimental: FIGURE 2 Failure of BMP-7 mimetic (THR-123) to induce ectopic bone formation in rat implant assay: This assay is based on the ability of BMP-7 to induce ectopic bone formation in the rat and was carried out as described earlier (The Journal of Biological Chemistry, Vol. 267, pp. 20352-20362,1992) to determine in vivo efficacy of THR-123. Briefly, bovine bone matrix (collagen carrier)/BMP-7 or Hydrogel/BMP-7 or Hydrogel/THR-123, devices (all lyophilized) were implanted in muscle pocket. […] This work was supported by Thrasos Therapeutics.

[7] = occurred equally in placebo and THR-184 treated subjects
[8] = Arm 4 High Dose 0.46/0.02 mg/kg
[9] = Arm 5 Highest Dose 0.46/0.46 mg/kg

Molecule: CC(C)C[C@@H]1NC(=O)[C@H](C(C)C)NC(=O)[C@H](CO)NC(=O)[C@H](CO)NC(=O)[C@H](CO)NC(=O)[C@H](CC(N)=O)NC(=O)[C@H](CC(=O)O)NC(=O)[C@H](Cc2ccc(O)cc2)NC(=O)[C@H](Cc2ccc(O)cc2)NC(=O)[C@@H](N)CSSC[C@@H](C(=O)N[C@@H](CCCCN)C(=O)N[C@@H](CCCNC(=N)N)C(=O)N[C@@H](Cc2ccc(O)cc2)C(=O)N[C@@H](CCCNC(=N)N)C(=O)N[C@@H](CO)C(=O)O)NC1=O [THR-184] (H-CYYDNSSSVLCKRYRS-OH; disulfide 1-11)
- half-life [1]: 1 h
- cancer growth (cancer growth): Does not promote cancer growth
- bleeding time (bleeding time): Does not affect bleeding time
- hemodynamics (hemodynamics): Does not affect hemodynamics
- wound healing (wound healing): Does not inhibit wound healing
- off-target interactions (Off-target survey): Has no off-target interactions (114 targets surveyed)
- effect on CYP450 1A2 (CYP450 1A2): Has no effect on key CYP450 isoforms (1A2, 2C19, 2C9, 2D6, 3A4)
- effect on CYP450 2C19 (CYP450 2C19): Has no effect on key CYP450 isoforms (1A2, 2C19, 2C9, 2D6, 3A4)
- effect on CYP450 2C9 (CYP450 2C9): Has no effect on key CYP450 isoforms (1A2, 2C19, 2C9, 2D6, 3A4)
- effect on CYP450 2D6 (CYP450 2D6): Has no effect on key CYP450 isoforms (1A2, 2C19, 2C9, 2D6, 3A4)
- effect on CYP450 3A4 (CYP450 3A4): Has no effect on key CYP450 isoforms (1A2, 2C19, 2C9, 2D6, 3A4)
- relationship of dose to serum levels [2]: clear relationship of the dose to serum levels of the compound
- most frequently observed adverse event [3, 7]: headache
- serious adverse events ([3]; single 60 min iv infusion, 0.3-10 mg/kg, healthy volunteers): no serious adverse events observed
- serious adverse events ([4]; 60 min iv infusion once daily for five days, 0.3-3 mg/kg, healthy volunteers): no serious adverse events observed
- most frequently observed adverse event [4, 7]: somnolence
- Human Plasma Stability: t1/2 [5]: 6 min
- Deaths ([6]; Arm 2 Low Dose 0.02/0.02 mg/kg): 4 #
- SAE > 1 (Serious Adverse Events) ([6]; Arm 2 Low Dose 0.02/0.02 mg/kg): 46.7%
- Deaths ([6]; Arm 3 Mid Dose 0.12/0.02 mg/kg): 5 #
- SAE > 1 (Serious Adverse Events) ([6]; Arm 3 Mid Dose 0.12/0.02 mg/kg): 59.6%
- Deaths [6, 8]: 4 #
- SAE > 1 (Serious Adverse Events) [6, 8]: 42.0%
- Deaths [6, 9]: 5 #
- SAE > 1 (Serious Adverse Events) [6, 9]: 41.0%

B1: BMP-7: Bone Morphogenetic Protein-7, positive control in rat implant assay (protein, UniProt P18075 293-431, looked up)
Bone morphogenetic protein 7: STGSKQRSQNRSKTPKNQEALRMANVAENSSSDQRQACKKHELYVSFRDLGWQDWIIAPEGYAAYYCEGECAFPLNSYMNATNHAIVQTLVHFINPETVPKPCCAPTQLNAISVLYFDDSSNVILKKYRNMVVRACGCH
- ectopic bone formation (ectopic bone formation): induced bone formation
